Data as given in patent US20090275562A1 (Cypress Biosciences, Inc., priority 2008, published 2009).

What was measured:
[1] = test system: 5-HT and NA reuptake sites; conditions: from U.S. Pat. No. 6,642,235; cited from earlier work
[2] = Example 1A clinical study, 6-week weight gain/loss with mirtazapine and reboxetine; assay type: in vivo, human; conditions: for Mean Change from Baseline (weight): Week 6, 4 mg reboxetine morning, 15 mg mirtazapine evening, female volunteers; for mean change in body mass over the course of the study, in words (FIGS. 1-4): completers with fasted body mass at baseline and end of week 6; for 6-week weight gain (or loss), in words: versus placebo, 6 weeks of therapy
Experimental: All medications were administered in an over-encapsulated format that ensures blinding of study participants, staff and investigators. All subjects received a total of 6 weeks of therapy. Vital signs and weight assessments were made at clinic visits at the beginning and end of the study and at various times during the study. Patient outcomes of sleep quality and propensity were evaluated using the Karolinska Sleepiness Scale (KSS) and the Epworth Sleepiness Scale (ESS). Standard safety review was also conducted for each of the subjects, including recordation of any adverse events.
Sensitivity analysis was performed for completers and for intention-to-treat, last observation carried forward ([…]).

[3] = Example 1 tolerability study of mirtazapine and reboxetine in healthy subjects; assay type: in vivo, human; conditions: 6 weeks; 15 mg mirtazapine evening, 2 or 4 mg reboxetine morning; present-tense example
Experimental: (§1) The subjects receive 2 capsules per day, one in the morning and one at bedtime. […] All medications are administered in an over-encapsulated format that ensures blinding of study participants, staff and investigators. All subjects are scheduled to receive a total of 6 weeks of therapy, and are required to return to the clinics after 1, 2, 4 and 6 weeks of therapy. Patients are required to complete paper self-assessments, electronic diary assessments, computer based cognitive testing, as well as vital signs and weight assessments at the clinic visits.

[4] = Example 4 tolerability study of mirtazapine and betahistine in healthy subjects; assay type: in vivo, human; conditions: 6 weeks; 15 mg mirtazapine evening, 8 or 16 mg betahistine morning; present-tense example
Experimental: as §1

[5] = controlled studies, cited from earlier work
[6] = Completers and MF (morning fasting) weight

| Molecule | norepinephrine reuptake inhibitor selectivity (Ki5HT/KiNA) [1] | Mean Change from Baseline (weight) [2, 6] [kg] | Mean Change from Baseline (weight) ([2]; Completers and NMF weight) [kg] | Mean Change from Baseline (weight) ([2]; ITT-LOCF & NMF weight) [kg] | Mean Change from Baseline (weight) ([2]; ITT-LOCF and MF weight) [kg] | mean change in body mass over the course of the study, in words (FIGS. 1-4) [2] | 6-week weight gain (or loss), in words [2] | side effects caused, in words [3] | side effects caused, in words [4] | weight gain of greater than or equal to 7% of body weight, share of patients ([5]; placebo 0%) [%] | appetite increase reported, share of patients ([5]; placebo 2%) [%] | increase in body weight / weight gain ([2]; 6 weeks, text summary of the tables (values of Table 1A-1, mean ± standard error)) [kg] |
| --- | --- | --- | --- | --- | --- | --- | --- | --- | --- | --- | --- | --- |
| CCOc1ccccc1OC(c1ccccc1)C1CNCCO1 (racemic) [reboxetine, 2-[(2-ethoxyphenoxy)-phenyl-methyl]morpholine] | about 80 | -1.61 | -1.7 | -1.693 | -1.685 | decrease in body mass | weight loss as compared to placebo-only | insomnia, nausea/vomiting, and weight loss | insomnia, nausea/vomiting, and weight loss |  |  |  |
| CN(C)CCC=C1c2ccccc2CCc2ccccc21 [amitriptyline] |  |  |  |  |  |  |  |  |  | 5.9 | 6 |  |
| CN1CCN2c3ncccc3Cc3ccccc3C2C1 (stereo not drawn) [mirtazapine, 1,2,3,4,10,14b-hexahydro-2-methylpyrazino[2,1-a]pyrido[2,3-c]benzazepine] |  | 2.215 | 1.943 | 1.8 | 2.043 | marked increase in body mass | significantly greater weight gain | weight gain, sedation, and cognitive deficits | weight gain, sedation, and cognitive deficits |  |  | 2.215 ± 0.385 |
| (S,S)reboxetine | about 12,700 |  |  |  |  |  |  |  |  |  |  |  |
